The text below walks through data of PubChem BioAssay AID588835 (The Scripps Research Institute Molecular Screening Center, 2011).

Assay [1] deals with Monoacylglycerol lipase ABHD6 (Mus musculus) (UniProt Q8R2Y0). Kind of assay: in situ PREP and ABHD6 off-target inhibition, dose response, selectivity assay for PME-1 inhibitor project, cell-based, fluorescence, gel-based ABPP (AID 588835). To be noted: in situ gel-based competitive ABPP.
Assay [2] has as its target Prolyl endopeptidase (Mus musculus) (UniProt Q9QUR6). Described as above. Conditions: in situ gel-based competitive ABPP, PREP, IC50, second panel column.

The source made the active and inactive calls. No rule for the calls is given here.

Chain of Prolyl endopeptidase (Mus musculus) (Q9QUR6 whole entry, looked up): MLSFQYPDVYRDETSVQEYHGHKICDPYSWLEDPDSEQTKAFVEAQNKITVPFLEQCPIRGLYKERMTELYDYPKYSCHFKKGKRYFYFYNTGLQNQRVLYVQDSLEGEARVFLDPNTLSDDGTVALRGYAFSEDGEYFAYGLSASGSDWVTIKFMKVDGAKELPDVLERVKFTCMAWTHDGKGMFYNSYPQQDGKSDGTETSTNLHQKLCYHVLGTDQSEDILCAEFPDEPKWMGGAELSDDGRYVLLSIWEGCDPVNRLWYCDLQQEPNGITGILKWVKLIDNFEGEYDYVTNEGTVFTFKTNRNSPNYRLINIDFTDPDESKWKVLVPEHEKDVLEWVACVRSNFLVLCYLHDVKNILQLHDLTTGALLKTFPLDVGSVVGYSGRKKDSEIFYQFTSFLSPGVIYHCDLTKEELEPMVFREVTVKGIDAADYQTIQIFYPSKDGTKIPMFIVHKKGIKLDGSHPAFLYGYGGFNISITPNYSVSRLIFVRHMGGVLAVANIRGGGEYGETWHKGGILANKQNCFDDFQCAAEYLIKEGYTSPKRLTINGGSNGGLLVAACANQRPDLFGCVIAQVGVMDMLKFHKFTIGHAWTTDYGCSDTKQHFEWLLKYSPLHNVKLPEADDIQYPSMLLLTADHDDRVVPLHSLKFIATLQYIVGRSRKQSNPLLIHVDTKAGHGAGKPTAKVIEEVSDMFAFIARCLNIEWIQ
Chain of Monoacylglycerol lipase ABHD6 (Mus musculus) (Q8R2Y0 whole entry, looked up): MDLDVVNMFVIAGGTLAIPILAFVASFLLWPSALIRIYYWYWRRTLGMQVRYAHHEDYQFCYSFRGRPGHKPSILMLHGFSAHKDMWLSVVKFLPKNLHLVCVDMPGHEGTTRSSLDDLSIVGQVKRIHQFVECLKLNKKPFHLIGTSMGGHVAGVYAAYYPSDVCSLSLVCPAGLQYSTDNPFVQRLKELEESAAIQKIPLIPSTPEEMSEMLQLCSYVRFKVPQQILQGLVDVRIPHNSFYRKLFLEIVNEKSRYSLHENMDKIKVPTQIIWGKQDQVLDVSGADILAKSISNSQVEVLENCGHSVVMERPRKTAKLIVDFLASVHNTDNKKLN

For `CC[C@@]1(c2ccc(C)cc2)C(=O)N(C(=O)OC(C)C)N1C(=O)OC(C)C`, the IC50 (usually the midpoint of a concentration-inhibition curve) in assay [1] is “inactive”. Besides, the IC50 in assay [2] amounted to 2340 nM.
